From patent US8680159B2, “Bradykinin 1 receptor modulating compounds” (Gruenenthal GmbH, priority 2010, dated 2014)

Tests used:
[1] = target: T1, human B1R receptor (CHO K1 cells stably transfected with the human B1R gene) (Homo sapiens, UniProt P46663); assay: Functional study on the bradykinin receptor 1 (B1R), Ca2+ fluorescence (Fluo-4) FLIPR/Novostar assay, hB1R cells; assay type: cell-based; conditions: CHO-K1, read-out: % inhibition (human B1R) at 10 μM
T1 construct: expressed in transfected cells; host or cells: CHO K1 cells (Chinese hamster ovary), stably transfected
T1 sequence (P46663 1-353): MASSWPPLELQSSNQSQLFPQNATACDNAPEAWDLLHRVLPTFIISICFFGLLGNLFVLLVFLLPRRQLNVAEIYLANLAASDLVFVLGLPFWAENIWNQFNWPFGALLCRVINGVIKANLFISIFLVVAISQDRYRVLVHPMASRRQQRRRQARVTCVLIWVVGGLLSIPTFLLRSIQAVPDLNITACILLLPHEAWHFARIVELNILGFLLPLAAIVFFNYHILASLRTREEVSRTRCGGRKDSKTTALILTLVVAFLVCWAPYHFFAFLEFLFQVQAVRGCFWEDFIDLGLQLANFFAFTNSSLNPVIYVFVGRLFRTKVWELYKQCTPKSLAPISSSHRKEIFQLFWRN
Procedure, shortened: (§1)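 Test compounds (10 μM) were added first and the Ca2+ rise was scored as % activation against Lys-Des-Arg9-bradykinin (≥50 nM, human) or Des-Arg9-bradykinin (≥1 μM, rat). After 6-20 min, the matching agonist was given at its EC80, and % inhibition relative to maximal achievable inhibition was calculated.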

[2] = target: T2, B1R receptor of the rat (CHO K1 cells stably transfected with the B1R gene of the rat) (Rattus norvegicus, UniProt P97583); assay: Functional study on the bradykinin receptor 1 (B1R), Ca2+ fluorescence (Fluo-4) FLIPR/Novostar assay, rB1R cells; assay type: cell-based; conditions: CHO-K1, 10 μM, read-out: % inhibition (rat B1R) at 10 μM
T2 construct: expressed in transfected cells; host or cells: CHO K1 cells (Chinese hamster ovary), stably transfected
T2 sequence (P97583 1-337): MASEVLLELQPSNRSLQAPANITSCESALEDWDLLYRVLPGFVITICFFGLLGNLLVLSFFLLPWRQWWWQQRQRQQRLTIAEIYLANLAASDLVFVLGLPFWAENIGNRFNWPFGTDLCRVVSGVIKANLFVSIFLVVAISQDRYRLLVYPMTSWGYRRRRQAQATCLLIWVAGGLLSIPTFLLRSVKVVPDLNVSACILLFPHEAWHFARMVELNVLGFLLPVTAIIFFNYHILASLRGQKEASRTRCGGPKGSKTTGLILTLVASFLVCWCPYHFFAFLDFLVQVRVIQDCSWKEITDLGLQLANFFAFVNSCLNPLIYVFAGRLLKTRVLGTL
Procedure, shortened: as §1

CN(C(=O)c1ccc2c(c1)CC[C@H]2N1Cc2cccc(Cl)c2C1=O)C1CCN(c2ccccn2)CC1 [Example H-26, (1R)-1-(4-Chloro-3-oxo-1,2-dihydro-isoindol-2-yl)-N-methyl-N-(1-pyridin-2-yl-piperidin-4-yl)-2,3-dihydro-1H-indene-5-carboxylic acid amide]
inhibition at 10 µM [1]: 52% | inhibition at 10 µM [2]: 0%

CN(C(=O)c1ccc2c(c1)CC[C@H]2N1Cc2cccc(Cl)c2C1=O)C1CCN(Cc2ccncc2)CC1 [Example H-27, (1R)-1-(4-Chloro-3-oxo-1,2-dihydro-isoindol-2-yl)-N-methyl-N-[1-(pyridin-4-yl-methyl)-piperidin-4-yl]-2,3-dihydro-1H-indene-5-carboxylic acid amide]
inhibition at 10 µM [1]: 74% | inhibition at 10 µM [2]: 11%

CC(C)CC(=O)N[C@@H]1CCc2ccc(C(=O)N(C)C3CCN(c4ccncc4)CC3)cc21 [Example H-28, (3R)-N-Methyl-3-(3-methyl-butanoylamino)-N-(1-pyridin-4-yl-piperidin-4-yl)-2,3-dihydro-1H-indene-5-carboxylic acid amide]
inhibition at 10 µM [1]: 100% | inhibition at 10 µM [2]: 100%

CN(C(=O)c1ccc2c(c1)[C@H](NC(=O)c1ccccc1F)CC2)C1CCN(c2ccncc2)CC1 [Example H-29, (3R)-3-[(2-Fluoro-benzoyl)amino]-N-methyl-N-(1-pyridin-4-yl-piperidin-4-yl)-2,3-dihydro-1H-indene-5-carboxylic acid amide]
inhibition at 10 µM [1]: 99% | inhibition at 10 µM [2]: 100%

CN(C(=O)c1ccc2c(c1)[C@H](NC(=O)c1ccccc1C(F)(F)F)CC2)C1CCN(c2ccncc2)CC1 [Example H-30, (3R)-N-Methyl-N-(1-pyridin-4-yl-piperidin-4-yl)-3-[[2-(trifluoromethyl)-benzoyl]amino]-2,3-dihydro-1H-indene-5-carboxylic acid amide]
inhibition at 10 µM [1]: 100% | inhibition at 10 µM [2]: 99%

CN(C(=O)c1ccc2c(c1)[C@H](NC(=O)c1cncnc1)CC2)C1CCN(c2ccncc2)CC1 [Example H-31, N-[(1R)-6-[Methyl-(1-pyridin-4-yl-piperidin-4yl)carbamoyl]-2,3-dihydro-1H-inden-1-yl]-pyrimidine-5-carboxylic acid amide]
inhibition at 10 µM [1]: 100% | inhibition at 10 µM [2]: 70%

CN(C(=O)c1ccc2c(c1)[C@H](NC(=O)c1c(F)cccc1Cl)CC2)C1CCN(c2ccncc2)CC1 [Example H-32, (3R)-3-[(2-Chloro-6-fluoro-benzoyl)amino]-N-methyl-N-(1-pyridin-4-yl-piperidin-4-yl)-2,3-dihydro-1H-indene-5-carboxylic acid amide]
inhibition at 10 µM [1]: 100% | inhibition at 10 µM [2]: 101%

CN(C(=O)c1ccc2c(c1)[C@H](NS(=O)(=O)c1ccccc1Cl)CC2)C1CCN(c2ccncc2)CC1 [Example H-33, (3R)-3-[[(2-Chlorophenyl)sulfonyl]amino]-N-methyl-N-(1-pyridin-4-yl-piperidin-4-yl)-2,3-dihydro-1H-indene-5-carboxylic acid amide]
inhibition at 10 µM [1]: 100% | inhibition at 10 µM [2]: 101%

CC(C)CC(=O)N[C@@H]1CCc2cc(C(=O)N(C)C3CCN(c4ccncc4)CC3)ccc21 [Example H-34, (1R)-N-Methyl-1-(3-methyl-butanoylamino)-N-(1-pyridin-4-yl-piperidin-4-yl)-2,3-dihydro-1H-indene-5-carboxylic acid amide]
inhibition at 10 µM [1]: 64% | inhibition at 10 µM [2]: 7%

CN(C(=O)c1ccc2c(c1)[C@H](NC(=O)Cc1ccccc1Cl)CC2)C1CCN(c2ccncc2)CC1 [Example H-35, (3R)-3-[[2-(2-Chlorophenyl)-acetyl]amino]-N-methyl-N-(1-pyridin-4-yl-piperidin-4-yl)-2,3-dihydro-1H-indene-5-carboxylic acid amide]
inhibition at 10 µM [1]: 100% | inhibition at 10 µM [2]: 105%

CN(C(=O)c1ccc2c(c1)[C@H](NC(=O)c1cnccc1C(F)(F)F)CC2)C1CCN(c2ccncc2)CC1 [Example H-36, N-[(1R)-6-[Methyl-(1-pyridin-4-yl-piperidin-4-yl)-carbamoyl]-2,3-dihydro-1H-inden-1-yl]-4-(trifluoromethyl)-pyridine-3-carboxylic acid amide]
inhibition at 10 µM [1]: 100% | inhibition at 10 µM [2]: 105%

CN(C(=O)c1ccc2c(c1)[C@H](NC(=O)c1cccnc1C(F)(F)F)CC2)C1CCN(c2ccncc2)CC1 [Example H-37, N-[(1R)-6-[Methyl-(1-pyridin-4-yl-piperidin-4-yl)-carbamoyl]-2,3-dihydro-1H-inden-1-yl]-2-(trifluoromethyl)-pyridine-3-carboxylic acid amide]
inhibition at 10 µM [1]: 100% | inhibition at 10 µM [2]: 107%

O=C(N[C@@H]1CCc2ccc(C(=O)N(C3CC3)C3CCN(c4ccncc4)CC3)cc21)c1ccccc1Cl [Example H-38, (3R)-3-[(2-Chloro-benzoyl)amino]-N-cyclopropyl-N-(1-pyridin-4-yl-piperidin-4-yl)-2,3-dihydro-1H-indene-5-carboxylic acid amide]
inhibition at 10 µM [1]: 100% | inhibition at 10 µM [2]: 103%

CN(C(=O)c1ccc2c(c1)[C@H](NC(=O)c1ccccc1Cl)CC2)C1CCN(c2ccncc2)C1 (stereo partly drawn) [Example H-39, (3R)-3-[(2-Chloro-benzoyl)amino]-N-methyl-N-(1-pyridin-4-yl-pyrrolidin-3-yl)-2,3-dihydro-1H-indene-5-carboxylic acid amide]
inhibition at 10 µM [1]: 100% | inhibition at 10 µM [2]: 100%

CN1CCC(N2CCC(N(C)C(=O)c3ccc4c(c3)[C@H](NC(=O)c3ccccc3Cl)CC4)CC2)CC1 [Example H-40, (3R)-3-[(2-Chloro-benzoyl)amino]-N-methyl-N-[1-(1-methyl-piperidin-4-yl)-piperidin-4-yl]-2,3-dihydro-1H-indene-5-carboxylic acid amide]
inhibition at 10 µM [1]: 52% | inhibition at 10 µM [2]: 73%

COc1ncccc1C(=O)N[C@@H]1CCc2ccc(C(=O)N(C)C3CCN(c4ccncc4)CC3)cc21 [Example H-41, 2-Methoxy-N-[(1R)-6-[methyl-(1-pyridin-yl-piperidin-4yl)-carbamoyl]-2,3-dihydro-1H-inden-1-yl]-pyridine-3-carboxylic acid amide]
inhibition at 10 µM [1]: 100% | inhibition at 10 µM [2]: 98%

CN1CCC(N2CCC(NC(=O)c3ccc4c(c3)CC[C@H]4N3Cc4cccc(Cl)c4C3=O)CC2)CC1 [Example H-42, (1R)-1-(4-Chloro-3-oxo-1,2-dihydro-isoindol-2-yl)-N-[1-(1-methyl-piperidin-4-yl)-piperidin-4-yl]-2,3-dihydro-1H-indene-5-carboxylic acid amide]
inhibition at 10 µM [1]: 65% | inhibition at 10 µM [2]: 18%

CN(C(=O)c1ccc2c(c1)CC[C@H]2N1Cc2cccc(Cl)c2C1=O)C1CCN(CCc2ccncc2)CC1 [Example H-43, (1R)-1-(4-Chloro-3-oxo-1,2-dihydro-isoindol-2-yl)-N-methyl-N-[1-(2-pyridin-4-yl-ethyl)-piperidin-4-yl]-2,3-dihydro-1H-Indene-5-carboxylic acid amide]
inhibition at 10 µM [1]: 22% | inhibition at 10 µM [2]: 51%

CN(C(=O)c1ccc2c(c1)OCC[C@H]2NC(=O)c1ccccc1Cl)C1CCN(c2ccncc2)CC1 [Example H-44, (4R)-4-[(2-Chloro-benzoyl)amino]-N-methyl-N-(1-pyridin-4-yl-piperidin-4-yl)-3,4-dihydro-2H-chromene-7-carboxylic acid amide]
inhibition at 10 µM [1]: 94% | inhibition at 10 µM [2]: 94%

CN(C(=O)c1ccc2c(c1)OCC[C@H]2N1Cc2cccc(Cl)c2C1=O)C1CCN(c2ccncc2)CC1 [Example H-45, (4R)-4-(4-Chloro-3-oxo-1,2-dihydro-isoindol-2-yl)-N-methyl-N-(1-pyridin-4-yl-piperidin-4-yl)-3,4-dihydro-2H-chromene-7-carboxylic acid amide]
inhibition at 10 µM [1]: 98% | inhibition at 10 µM [2]: 56%

CN(C(=O)c1ccc2c(c1)[C@H](NC(=O)C1(c3ccccc3F)CC1)CC2)C1CCN(c2ccncc2)CC1 [Example H-46, (3R)-3-[[1-(2-Fluorophenyl)-cyclopropanecarbonyl]amino]-N-methyl-N-(1-pyridin-4-yl-piperidin-4-yl)-2,3-dihydro-1H-indene-5-carboxylic acid amide]
inhibition at 10 µM [1]: 100% | inhibition at 10 µM [2]: 103%

CN(C(=O)c1ccc2c(c1)[C@H](NC(=O)C1(c3ccccc3F)CCCC1)CC2)C1CCN(c2ccncc2)CC1 [Example H-47, (3R)-3-[[1-(2-Fluorophenyl)-cyclopentanecarbonyl]amino]-N-methyl-N-(1-pyridin-4-yl-piperidin-4-yl)-2,3-dihydro-1H-indene-5-carboxylic acid amide]
inhibition at 10 µM [1]: 100% | inhibition at 10 µM [2]: 104%
